Measured values taken from PubChem BioAssay (NCI).
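Grown in 96-well plates, cells were treated for 48 hours with each compound at five concentrations. Insufficient inhibition: endpoint recorded as highest concentration tested. Abbreviation: GI50, concentration required for 50% inhibition of growth. Definition used: TGI = concentration required for complete inhibition of growth.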

Tests used:
Test in all cases: NCI anticancer screen, dose series, 48 h
[1] = tested on: SNB-75 CNS
[2] = tested on: SNB-19 CNS
[3] = tested on: MDA-MB-435
[4] = tested on: PC-3 prostate
[5] = tested on: U251 CNS
[6] = tested on: K-562 leukemia
[7] = tested on: OVCAR-5 ovarian
[8] = tested on: CCRF-CEM leukemia
[9] = tested on: CAKI-1 renal
[10] = tested on: UACC-62 melanoma
[11] = tested on: DU-145 prostate
[12] = tested on: RXF 393 renal
[13] = tested on: TK-10 renal
[14] = tested on: SK-OV-3 ovarian
[15] = tested on: MALME-3M melanoma
[16] = tested on: HCT-15 colon
[17] = tested on: NCI-H226 lung
[18] = tested on: MOLT-4 leukemia
[19] = tested on: 786-0 renal
[20] = tested on: M14 melanoma
[21] = tested on: HL-60(TB) leukemia
[22] = tested on: SK-MEL-28 melanoma
[23] = tested on: KM12 colon
[24] = tested on: COLO 205 colon
[25] = tested on: NCI-H522 lung
[26] = tested on: HCC-2998 colon
[27] = tested on: OVCAR-4 ovarian
[28] = tested on: OVCAR-3 ovarian
[29] = tested on: HS 578T breast
[30] = tested on: UACC-257 melanoma
[31] = tested on: HT29 colon
[32] = tested on: OVCAR-8 ovarian
[33] = tested on: T-47D breast
[34] = tested on: ACHN renal
[35] = tested on: LOX IMVI melanoma
[36] = tested on: NCI/ADR-RES ovarian
[37] = tested on: SF-539 CNS
[38] = tested on: NCI-H23 lung
[39] = tested on: BT-549 breast
[40] = tested on: SK-MEL-5 melanoma
[41] = tested on: SN12C renal
[42] = tested on: A498 renal
[43] = tested on: HOP-62 NSCLC
[44] = tested on: SK-MEL-2 melanoma
[45] = tested on: MCF7 breast
[46] = tested on: RPMI-8226 leukemia
[47] = tested on: A549 NSCLC
[48] = tested on: IGROV1 ovarian
[49] = tested on: SW-620 colon
[50] = tested on: SF-295 CNS
[51] = tested on: NCI-H460 lung
[52] = tested on: SR leukemia
[53] = tested on: HOP-92 NSCLC
[54] = tested on: UO-31 renal
[55] = tested on: SF-268 CNS
[56] = tested on: MDA-MB-231 breast
[57] = tested on: HCT-116 colon

`Cn1cc(C2=C(Oc3ccccc3)C(=O)NC2=O)c2ccccc21` showed a GI50 [1] greater than 12.4 µM, a TGI [1] greater than 25 µM and a GI50 [2] greater than 25 µM. For the same molecule, the TGI [2] was greater than 25 µM, the GI50 [3] was greater than 25 µM and the TGI [3] was greater than 25 µM. It also gave a GI50 [4] greater than 25 µM, a TGI [4] greater than 25 µM and a GI50 [5] greater than 25 µM. For the same molecule, the TGI [5] was greater than 25 µM, the GI50 [6] was greater than 25 µM and the TGI [6] was greater than 25 µM. The GI50 [7] was greater than 25 µM, the TGI [7] was greater than 25 µM and the GI50 [8] was greater than 25 µM. It also gave a TGI [8] greater than 25 µM, a GI50 [9] greater than 25 µM and a TGI [9] greater than 25 µM. It also gave a GI50 [10] greater than 25 µM, a TGI [10] greater than 25 µM and a GI50 [11] greater than 25 µM. For the same molecule, the TGI [11] was greater than 25 µM, the GI50 [12] was greater than 25 µM and the TGI [12] was greater than 25 µM. It also gave a GI50 [13] greater than 25 µM, a TGI [13] greater than 25 µM and a GI50 [14] greater than 25 µM. The TGI [14] was greater than 25 µM, the GI50 [15] was greater than 25 µM and the TGI [15] was greater than 25 µM. For the same molecule, the GI50 [16] was greater than 25 µM, the TGI [16] was greater than 25 µM and the GI50 [17] was greater than 25 µM. The TGI [17] was greater than 25 µM, the GI50 [18] was greater than 25 µM and the TGI [18] was greater than 25 µM. It also gave a GI50 [19] greater than 25 µM, a TGI [19] greater than 25 µM and a GI50 [20] greater than 25 µM. The TGI [20] was greater than 25 µM, the GI50 [21] was greater than 25 µM and the TGI [21] was greater than 25 µM. It also gave a GI50 [22] greater than 25 µM, a TGI [22] greater than 25 µM and a GI50 [23] greater than 25 µM. The TGI [23] was greater than 25 µM, the GI50 [24] was greater than 25 µM and the TGI [24] was greater than 25 µM. The GI50 [25] was greater than 25 µM, the TGI [25] was greater than 25 µM and the GI50 [26] was greater than 25 µM. The TGI [26] was greater than 25 µM, the GI50 [27] was greater than 25 µM and the TGI [27] was greater than 25 µM. The GI50 [28] was greater than 25 µM, the TGI [28] was greater than 25 µM and the GI50 [29] was greater than 25 µM. For the same molecule, the TGI [29] was greater than 25 µM, the GI50 [30] was greater than 25 µM and the TGI [30] was greater than 25 µM. The GI50 [31] was greater than 25 µM, the TGI [31] was greater than 25 µM and the GI50 [32] was greater than 25 µM. It also gave a TGI [32] greater than 25 µM, a GI50 [33] greater than 25 µM and a TGI [33] greater than 25 µM. For the same molecule, the GI50 [34] was greater than 25 µM, the TGI [34] was greater than 25 µM and the GI50 [35] was greater than 25 µM. For the same molecule, the TGI [35] was greater than 25 µM, the GI50 [36] was greater than 25 µM and the TGI [36] was greater than 25 µM. For the same molecule, the GI50 [37] was greater than 25 µM, the TGI [37] was greater than 25 µM and the GI50 [38] was greater than 25 µM. The TGI [38] was greater than 25 µM, the GI50 [39] was greater than 25 µM and the TGI [39] was greater than 25 µM. The GI50 [40] was greater than 25 µM, the TGI [40] was greater than 25 µM and the GI50 [41] was greater than 25 µM. The TGI [41] was greater than 25 µM, the GI50 [42] was greater than 25 µM and the TGI [42] was greater than 25 µM. It also gave a GI50 [43] greater than 17.8 µM, a TGI [43] greater than 25 µM and a GI50 [44] greater than 25 µM. For the same molecule, the TGI [44] was greater than 25 µM, the GI50 [45] was greater than 25 µM and the TGI [45] was greater than 25 µM. It also gave a GI50 [46] greater than 25 µM, a TGI [46] greater than 25 µM and a GI50 [47] greater than 25 µM. It also gave a TGI [47] greater than 25 µM, a GI50 [48] greater than 25 µM and a TGI [48] greater than 25 µM. It also gave a GI50 [49] greater than 25 µM, a TGI [49] greater than 25 µM and a GI50 [50] greater than 25 µM. It also gave a TGI [50] greater than 25 µM, a GI50 [51] greater than 25 µM and a TGI [51] greater than 25 µM. For the same molecule, the GI50 [52] was greater than 25 µM, the TGI [52] was greater than 25 µM and the GI50 [53] was 6.32 µM. For the same molecule, the TGI [53] was greater than 25 µM, the GI50 [54] was greater than 25 µM and the TGI [54] was greater than 25 µM. For the same molecule, the GI50 [55] was greater than 25 µM, the TGI [55] was greater than 25 µM and the GI50 [56] was greater than 19.3 µM. It also gave a TGI [56] greater than 25 µM, a GI50 [57] greater than 25 µM and a TGI [57] greater than 25 µM.
